# Results taken from patent US8993480B2, “Active ingredient combinations with insecticidal properties” (Bayer CropScience AG, priority 2006, dated 2015).
# Columns and labels:
# Type in all cases: in vivo
# Myzus persicae = Myzus persicae test (cabbage leaves, dip); conditions: cabbage leaves dipped; for Kill rate in % after 1 d, found: 4 ppm
# From the text: (§1) The expected activity for a given combination of two active compounds can be calculated according to S. R. Colby, Weeds 15 (1967), 20-22) as follows:
# (§2) If • X is the kill rate, expressed in % of the untreated control, when employing active compound A at an application rate of m g/ha or in a concentration of m ppm, • Y is the kill rate, expressed in % of the untreated control, when employing active compound B at an application rate of n g/ha or in a concentration of n ppm and • E is the kill rate, expressed in % of the untreated control, when employing active compounds A and B at application rates of m and n g/ha or in a concentration of m and n ppm, then
# (§3) If the actual insecticidal kill rate is higher than the calculated one, the kill rates of the combination are superadditive, i.e. a synergistic effect is present. In this case, the kill rate that is actually observed has to be higher than the value, calculated using the formula above, for the expected kill rate (E).
# (§4) To produce a suitable preparation of active compound, 1 part by weight of active compound is mixed with the stated amounts of solvent and emulsifier, and the concentrate is diluted with emulsifier-containing water to the desired concentration.
# Cabbage leaves (Brassica oleracea) which are heavily infested by the green peach aphid (Myzus persicae) are treated by being dipped into the preparation of active compound of the desired concentration.
# After the desired period of time, the kill in % is determined. 100% means that all aphids have been killed; 0% means that none of the aphids have been killed. The determined kill rates are entered into Colby's formula (see page 71).
# Tetranychus urticae = Tetranychus urticae test (OP-resistent, dip application); conditions: bush beans dipped
# From the text: as §1, §2, §3
# To produce a suitable preparation of active compound, 1 part by weight of active compound is mixed with the stated amounts of solvent and emulsifier, and the concentrate is diluted with water to the desired concentrations. […]
# After the desired period of time, the kill in % is determined. […]
# Aphis gossypii = Aphis gossypii test (cotton leaves, dip); conditions: cotton leaves dipped
# From the text: as §1, §2, §3, §4
# Cotton leaves (Gossypium hirsutum) heavily infested by the cotton aphid (Aphis gossypii) are treated by being dipped into the preparation of active compound of the desired concentration.
# After the desired period of time, the kill in % is determined 100% means that all aphids have been killed; 0% means that none of the aphids have been killed. The determined kill rates are entered into Colby's formula (see page 71).
compound,measurement,setting,value
CCOC(=O)OC1=C(c2cc(C)ccc2C)C(=O)N[C@]12CC[C@@H](OC)CC2 [spirotetramat],"Kill rate in % after 6 d, found",Myzus persicae; 0.8 ppm,10%
same,"Kill rate in % after 7 d, found",Tetranychus urticae; 0.8 ppm,25%
same,"Kill rate in % after 6 d, found",Aphis gossypii; 4 ppm,15%
CNC(=O)c1cc(C#N)cc(C)c1NC(=O)c1cc(Br)nn1-c1ncccc1Cl [compound (5)],"Kill rate in % after 6 d, found",Myzus persicae; 0.16 ppm,5%
same,"Kill rate in % after 1 d, found",Myzus persicae,10%
same,"Kill rate in % after 7 d, found",Tetranychus urticae; 0.16 ppm,0%
same,"Kill rate in % after 6 d, found",Aphis gossypii; 0.8 ppm,45%
COCCOC(=O)C(C#N)(C(=O)c1ccccc1C(F)(F)F)c1ccc(C(C)(C)C)cc1 (stereo not drawn) [cyflumetofen],"Kill rate in % after 6 d, found",Aphis gossypii; 0.16 ppm,0%
Cc1nn(C)c(/C(OC(=O)C(C)(C)C)=C(\C#N)c2ccc(C(C)(C)C)cc2)c1C [cyenopyrafen],"Kill rate in % after 1 d, found",Myzus persicae,0%
